Reference: patent EP2061765B1, “Serine-threonine protein kinase and PARP modulators” (Senhwa Biosciences, Inc., priority 2006, dated 2008)

Columns and labels:
Experiment in all cases: Cell proliferation assay (Alamar Blue)
Format in all cases: cell-based
[1] = system: HCT-116; conditions: Homo sapiens, 96 h, HCT-116 cells, four days;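 note: fluorescence of unreduced Alamar Blue read roughly 4 h after dye addition, with wells given medium instead of compound serving as controls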
[2] = system: MiaPaCa; conditions: Homo sapiens, MIA PaCa-2, 96 h, MiaPaCa cells, four days
Method: (§1) A representative cell-proliferation assay protocol using Alamar Blue dye (stored at 4°C, use 20ul per well) is described hereafter. 96-well plate setup and compound treatment • a. Split and trypsinize cells. • b. Count cells using hemocytometer. • c. Plate 4,000-5,000 cells per well in 100 µl of medium and seed into a 96-well plate according to the following plate layout. Add cell culture medium only to wells B10 to B12. Wells B1 to B9 have cells but no compound added. [formula] [formula] • d. Add 100 µl of 2X drug dilution to each well in a concentration shown in the plate layout above. At the same time, add 100 µl of media into the control wells (wells B10 to B12). Total volume is 200 µl/well. • e. Incubate four (4) days at 37°C, 5% CO2 in a humidified incubator. • f. Add 20µl Alamar Blue reagent to each well. • g. Incubate for four (4) hours at 37°C, 5% CO2 in a humidified incubator. • h. Record fluorescence at an excitation wavelength of 544nm and emission wavelength of 590nm using a microplate reader.
(§2) In the assays, cells are cultured with a test compound for approximately four days, the dye then is added to the cells and fluorescence of […] dye is detected after approximately four hours. Different types of cells can be utilized in the assays (e.g., HCT-116 human colorectal carcinoma cells, PC-3 human prostatic cancer cells and MiaPaca human pancreatic carcinoma cells). Anti-proliferative effects of representative compounds are provided hereafter.

[3] = system: Jurkat; conditions: Homo sapiens, 96 h, Jurkat cells, four days
Method: as §1, §2

Row | SMILES | IC50 [1] | IC50 [2] | IC50 [3]
1 | c1ccc(Nc2nc3cc(-c4nnn[nH]4)ccc3c3cnccc23)cc1 | > 10 µM |  | 
2 | N#Cc1ccc2c(c1)nc(Nc1ccccc1)c1ccncc12 | 6.9 µM |  | 
3 | Cc1noc(-c2ccc3c(c2)nc(Nc2ccccc2)c2ccncc23)n1 | > 10 µM |  | 
4 | COC(=O)c1ccc2c(c1)nc(Cl)c1ncncc12 | 1.71 µM | 2.92 µM | 
5 | COC(=O)c1ccc2c(c1)nc(Nc1cccc(Cl)c1)c1ccncc12 | > 10 µM | > 10 µM | 
6 | COC(=O)c1ccc2c(c1)nc(Nc1ccccc1)c1nc(SC)ncc12 | 9.56 µM | > 10 µM | 
7 | COC(=O)c1ccc2c(c1)nc(Nc1ccccc1)c1nc(S(C)(=O)=O)ncc12 | 0.97 µM | 2.82 µM | 
8 | CNc1ncc2c(n1)c(Nc1ccccc1)nc1cc(C(=O)OC)ccc12 | 4.06 µM | > 10 µM | 
9 | OCc1ccc2c(c1)nc(Nc1cccc(Cl)c1)c1ccncc12 | 4.28 µM | 4.05 µM | 
10 | O=C(O)c1ccc2c(c1)nc(Nc1ccccc1)c1nc(NC3CC3)ncc12 [drawing 318] | 1.94 µM | 0.68 µM | 2.42 µM
11 | CCCNc1ncc2c(n1)c(Nc1ccccc1)nc1cc(C(=O)O)ccc12 [drawing 319] | > 10 µM | 2.99 µM | 4.53 µM
12 | COCCNc1ncc2c(n1)c(Nc1ccccc1)nc1cc(C(=O)O)ccc12 [drawing 320] | > 10 µM | 3.2 µM | 5.8 µM
13 | O=C(O)c1ccc2c(c1)nc(Nc1ccccc1)c1nc(NCCO)ncc12 [drawing 321] | > 10 µM | 16.2 µM | 26.1 µM
14 | O=C(O)c1ccc2c(c1)nc(Nc1ccccc1)c1nc(NCCCO)ncc12 [drawing 322] | > 10 µM | 11.9 µM | 7.9 µM
15 | O=C(O)c1ccc2c(c1)nc(Nc1ccccc1)c1nc(NC3CCNCC3)ncc12 [drawing 323] | > 10 µM | 14.4 µM | 18.9 µM
16 | CCN(CC)CCNc1ncc2c(n1)c(Nc1ccccc1)nc1cc(C(=O)O)ccc12 [drawing 324] | > 10 µM | 1.45 µM | 13.1 µM
17 | O=C(O)c1ccc2c(c1)nc(Nc1ccccc1)c1nc(NCCN3CCOCC3)ncc12 [drawing 325] | > 10 µM | 1.69 µM | 5.7 µM
18 | O=C(O)c1ccc2c(c1)nc(Nc1ccccc1)c1nc(NCCCN3CCOCC3)ncc12 [drawing 326] | > 10 µM | 1.36 µM | 2.18 µM
19 | C#Cc1cccc(Nc2nc3cc(C(=O)O)ccc3c3cnc(NC4CC4)nc23)c1 [drawing 327] | 7.3 µM | 1.2 µM | 1.27 µM
20 | C#Cc1cccc(Nc2nc3cc(C(=O)O)ccc3c3cnc(NCCC)nc23)c1 [drawing 328] | > 10 µM | 2.32 µM | 2.67 µM
21 | C#Cc1cccc(Nc2nc3cc(C(=O)O)ccc3c3cnc(NCCOC)nc23)c1 [drawing 329] | 8.05 µM | 1 µM | 0.94 µM
22 | C#Cc1cccc(Nc2nc3cc(C(=O)O)ccc3c3cnc(NC4CCNCC4)nc23)c1 [drawing 330] | > 10 µM | 8.62 µM | 9.55 µM
23 | C#Cc1cccc(Nc2nc3cc(C(=O)O)ccc3c3cnc(NCCCN4CCOCC4)nc23)c1 [drawing 331] | > 10 µM | 2.26 µM | 3.69 µM
24 | C#Cc1cccc(Nc2nc3cc(C(=O)O)ccc3c3cnc(NC)nc23)c1 [drawing 332] | 4.69 µM | 2.34 µM | 1.29 µM

Row | SMILES | IC50 [1] | IC50 [2] | IC50 [3]
25 | O=C(O)c1ccc2c(c1)nc(Nc1ccc(Cl)c(C(F)(F)F)c1)c1ccncc12 [drawing 333] | 3.99 µM | 9.09 µM | 3.05 µM
26 | O=C(O)c1ccc2c(c1)nc(Nc1cccc(Cl)c1)c1nc(NC3CC3)ncc12 [drawing 334] | 7.82 µM | 0.47 µM | 1.29 µM
27 | O=C(O)c1ccc2c(c1)nc(Nc1cccc(C(F)(F)F)c1)c1ncncc12 [drawing 335] | > 10 µM | 2.23 µM | 2.53 µM
28 | CCOc1ncc2c(n1)c(Nc1cccc(C(F)(F)F)c1)nc1cc(C(=O)O)ccc12 [drawing 336] | > 10 µM | 18.1 µM | 35.9 µM
29 | Nc1ncc2c(n1)c(Nc1cccc(Cl)c1)nc1cc(C(=O)O)ccc12 [drawing 339] | > 10 µM | 0.88 µM | 1.14 µM
30 | CC(C)Nc1ncc2c(n1)c(Nc1cccc(Cl)c1)nc1cc(C(=O)O)ccc12 [drawing 340] | > 10 µM | 5.45 µM | 18.4 µM
31 | O=C(O)c1ccc2c(c1)nc(Nc1cccc(C(F)(F)F)c1)c1nc(NC3CC3)ncc12 [drawing 341] |  | 0.65 µM | 3.13 µM
32 | CCNc1ncc2c(n1)c(Nc1cccc(Cl)c1)nc1cc(C(=O)O)ccc12 [drawing 342] |  | 0.92 µM | 3.06 µM
33 | CNc1ncc2c(n1)c(Nc1ccc(F)c(Cl)c1)nc1cc(C(=O)O)ccc12 [drawing 343] | > 10 µM | 0.65 µM | 1.24 µM
34 | Nc1ncc2c(n1)c(Nc1ccc(F)c(Cl)c1)nc1cc(C(=O)O)ccc12 [drawing 344] | 11.2 µM | 0.95 µM | 4.34 µM
35 | O=C(O)c1ccc2c(c1)nc(Nc1ccc(F)c(Cl)c1)c1nc(NC3CC3)ncc12 [drawing 345] | > 10 µM | 0.37 µM | 1.54 µM
36 | COCCNc1ncc2c(n1)c(Nc1ccc(F)c(Cl)c1)nc1cc(C(=O)O)ccc12 [drawing 346] | > 10 µM | 1.08 µM | 0.41 µM
37 | C#Cc1cccc(Nc2nc3cc(C(=O)O)ccc3c3cnc(NCCOCC)nc23)c1 [drawing 347] | > 10 µM | 0.62 µM | 1.13 µM
38 | C#Cc1cccc(Nc2nc3cc(C(=O)O)ccc3c3cnc(NCCCOCC)nc23)c1 [drawing 348] | > 10 µM | 0.87 µM | 0.39 µM
39 | C#Cc1cccc(Nc2nc3cc(C(=O)O)ccc3c3cnc(NCCCOC(C)C)nc23)c1 [drawing 349] | > 10 µM | 2.01 µM | 2.37 µM
40 | O=C(O)c1ccc2c(c1)nc(Nc1cccc(Cl)c1)c1nc(O)ncc12 [drawing 350] | > 10 µM | > 50 µM | > 50 µM
41 | Cc1ncc2c(n1)c(Nc1cccc(Cl)c1)nc1cc(C(=O)O)ccc12 [drawing 351] | > 10 µM | 5.39 µM | 4.95 µM
42 | C#Cc1cccc(Nc2nc3cc(C(=O)OC)ccc3c3cnc(NOC)nc23)c1 [drawing 352] | > 10 µM | > 50 µM | 27 µM
43 | COC(=O)c1ccc2c(c1)nc(Nc1cccc(Cl)c1)c1nc(NCCC(N)=O)ncc12 [drawing 353] | > 10 µM | 17.1 µM | 4.41 µM
44 | NC(=O)CCNc1ncc2c(n1)c(Nc1cccc(Cl)c1)nc1cc(C(=O)O)ccc12 [drawing 354] | > 10 µM | > 50 µM | 37.7 µM
45 | O=C(O)CCNc1ncc2c(n1)c(Nc1cccc(Cl)c1)nc1cc(C(=O)O)ccc12 [drawing 355] | > 10 µM | > 50 µM | > 50 µM
46 | O=C(NC1CC1)c1ccc2c(c1)nc(Nc1cccc(C(F)(F)F)c1)c1nc(NC3CC3)ncc12 [drawing 365] | > 10 µM |  | 3.92 µM
47 | CC(C)OC(=O)Nc1ccc2c(c1)nc(Nc1cccc(C(F)(F)F)c1)c1nc(NC3CC3)ncc12 [drawing 370] | > 10 µM |  | 1.16 µM
